What was measured:
[1] = biological target: T1, ATP-dependent translocase ABCB1 (Homo sapiens, UniProt P08183); experiment: Inhibition of human MDR1 transfected in multi-drug resistant mouse L5178Y cells assessed as fluorescence activity ratio quotient at 2 uM incubated for 10 mins by rhodamine 123 accumulation assay relative to verapamil; type: cell-based; design: scale not given: the % may be the effect or the level left
[2] = biological target: T1, ATP-dependent translocase ABCB1; experiment: Inhibition of human MDR1 transfected in multi-drug resistant mouse L5178Y cells at 2 uM incubated for 10 mins by rhodamine 123 accumulation assay relative to verapamil; type: cell-based
[3] = biological target: T1, ATP-dependent translocase ABCB1; experiment: Inhibition of human MDR1 transfected in multi-drug resistant mouse L5178Y cells assessed as fluorescence activity ratio quotient at 20 uM incubated for 10 mins by rhodamine 123 accumulation assay relative to verapamil; type: cell-based; design: scale not given: the % may be the effect or the level left
[4] = biological target: T1, ATP-dependent translocase ABCB1; experiment: Inhibition of human MDR1 transfected in multi-drug resistant mouse L5178Y cells assessed as fluorescence activity ratio at 20 uM incubated for 10 mins by rhodamine 123 accumulation assay; type: cell-based
[5] = biological target: T1, ATP-dependent translocase ABCB1; experiment: Inhibition of human MDR1 transfected in multi-drug resistant mouse L5178Y cells assessed as fluorescence activity ratio at 2 uM incubated for 10 mins by rhodamine 123 accumulation assay; type: cell-based
[6] = biological target: T1, ATP-dependent translocase ABCB1; experiment: Inhibition of human MDR1 transfected in multi-drug resistant mouse L5178Y cells at 20 uM incubated for 10 mins by rhodamine 123 accumulation assay relative to verapamil; type: cell-based
L5178Y [7] = experiment: Cytotoxicity against mouse L5178Y cells assessed as growth inhibition after 72 hrs by MTT assay; type: functional, cell-based
L5178Y [8] = experiment: Cytotoxicity against multi-drug resistant mouse L5178Y cells assessed as growth inhibition after 72 hrs by MTT assay; type: functional, cell-based
L5178Y [9] = experiment: Induction of apoptosis in multi-drug resistant mouse L5178Y cells transfected with human MDR1 assessed as early apoptosis at 2 uM after 1 hr by Annexin V-FITC/propidium iodide staining-based flow cytometry (reference value: 6.46%); type: functional
L5178Y [10] = experiment: Induction of apoptosis in multi-drug resistant mouse L5178Y cells transfected with human MDR1 assessed as late apoptosis/necrosis at 2 uM after 1 hr by Annexin V-FITC/propidium iodide staining-based flow cytometry (reference value: 2.28%); type: functional
L5178Y [11] = experiment: Induction of apoptosis in multi-drug resistant mouse L5178Y cells transfected with human MDR1 assessed as cell death at 2 uM after 1 hr by Annexin V-FITC/propidium iodide staining-based flow cytometry (reference value: 0.09%); type: functional
L5178Y [12] = experiment: Induction of apoptosis in mouse L5178Y cells assessed as early apoptosis at 2 uM after 1 hr by Annexin V-FITC/propidium iodide staining-based flow cytometry (reference value: 3.96%); type: functional
L5178Y [13] = experiment: Induction of apoptosis in mouse L5178Y cells assessed as late apoptosis/necrosis at 2 uM after 1 hr by Annexin V-FITC/propidium iodide staining-based flow cytometry (reference value: 0.859%); type: functional
L5178Y [14] = experiment: Induction of apoptosis in mouse L5178Y cells assessed as cell death at 2 uM after 1 hr by Annexin V-FITC/propidium iodide staining-based flow cytometry (reference value: 0.191%); type: functional
L5178Y [15] = experiment: Induction of apoptosis in multi-drug resistant mouse L5178Y cells transfected with human MDR1 assessed as early apoptosis at 20 uM after 1 hr by Annexin V-FITC/propidium iodide staining-based flow cytometry (reference value: 6.46%); type: functional
L5178Y [16] = experiment: Induction of apoptosis in multi-drug resistant mouse L5178Y cells transfected with human MDR1 assessed as late apoptosis/necrosis at 20 uM after 1 hr by Annexin V-FITC/propidium iodide staining-based flow cytometry (reference value: 2.28%); type: functional
L5178Y [17] = experiment: Induction of apoptosis in multi-drug resistant mouse L5178Y cells transfected with human MDR1 assessed as cell death at 20 uM after 1 hr by Annexin V-FITC/propidium iodide staining-based flow cytometry (reference value: 0.09%); type: functional
L5178Y [18] = experiment: Induction of apoptosis in mouse L5178Y cells assessed as early apoptosis at 20 uM after 1 hr by Annexin V-FITC/propidium iodide staining-based flow cytometry (reference value: 3.96%); type: functional
L5178Y [19] = experiment: Induction of apoptosis in mouse L5178Y cells assessed as late apoptosis/necrosis at 20 uM after 1 hr by Annexin V-FITC/propidium iodide staining-based flow cytometry (reference value: 0.859%); type: functional
L5178Y [20] = experiment: Induction of apoptosis in mouse L5178Y cells assessed as cell death at 20 uM after 1 hr by Annexin V-FITC/propidium iodide staining-based flow cytometry (reference value: 0.191%); type: functional
L5178Y [21] = experiment: Ratio of induction of apoptosis in mouse L5178Y cells to multi-drug resistant mouse L5178Y cells transfected with human MDR1; type: functional

T1 sequence (P08183 whole entry): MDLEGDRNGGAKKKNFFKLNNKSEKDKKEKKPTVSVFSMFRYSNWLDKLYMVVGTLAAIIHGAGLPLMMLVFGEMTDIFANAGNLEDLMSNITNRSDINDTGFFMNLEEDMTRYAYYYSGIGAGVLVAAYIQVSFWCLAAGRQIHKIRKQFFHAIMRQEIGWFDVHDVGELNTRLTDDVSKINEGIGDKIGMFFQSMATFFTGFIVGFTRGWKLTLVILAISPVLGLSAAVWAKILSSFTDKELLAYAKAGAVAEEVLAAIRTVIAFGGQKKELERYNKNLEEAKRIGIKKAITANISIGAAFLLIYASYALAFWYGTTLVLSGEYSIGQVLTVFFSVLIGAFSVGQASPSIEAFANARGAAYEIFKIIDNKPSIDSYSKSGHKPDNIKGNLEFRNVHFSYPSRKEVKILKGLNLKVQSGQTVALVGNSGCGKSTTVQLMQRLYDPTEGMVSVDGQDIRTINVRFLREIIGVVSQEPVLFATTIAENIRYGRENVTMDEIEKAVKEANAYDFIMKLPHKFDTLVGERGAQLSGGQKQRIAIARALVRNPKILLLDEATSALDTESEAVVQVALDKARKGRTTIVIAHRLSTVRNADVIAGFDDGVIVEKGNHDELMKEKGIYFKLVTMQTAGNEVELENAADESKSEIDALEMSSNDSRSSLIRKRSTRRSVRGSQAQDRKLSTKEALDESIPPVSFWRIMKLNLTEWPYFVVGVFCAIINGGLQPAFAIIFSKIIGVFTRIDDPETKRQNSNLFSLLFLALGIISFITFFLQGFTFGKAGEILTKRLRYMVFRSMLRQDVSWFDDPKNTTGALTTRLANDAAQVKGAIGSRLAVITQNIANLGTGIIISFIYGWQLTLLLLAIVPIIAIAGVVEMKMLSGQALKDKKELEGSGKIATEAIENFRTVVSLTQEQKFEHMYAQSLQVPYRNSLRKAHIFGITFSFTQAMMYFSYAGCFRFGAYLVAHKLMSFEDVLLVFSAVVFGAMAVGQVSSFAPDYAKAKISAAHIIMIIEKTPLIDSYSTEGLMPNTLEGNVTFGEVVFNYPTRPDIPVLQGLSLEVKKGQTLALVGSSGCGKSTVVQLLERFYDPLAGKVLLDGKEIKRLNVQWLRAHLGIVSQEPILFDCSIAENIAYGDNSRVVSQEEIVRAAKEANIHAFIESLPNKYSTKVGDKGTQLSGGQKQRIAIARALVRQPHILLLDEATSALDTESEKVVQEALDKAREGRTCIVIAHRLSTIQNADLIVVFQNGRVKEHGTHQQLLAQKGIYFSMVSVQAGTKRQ

SMILES	Activity [1] [%]	Activity [3] [%]	Ratio [4]	Ratio [5]	fold change (FC) [6]	IC50 (L5178Y [7]) [µM]	IC50 (L5178Y [8]) [µM]	Activity (L5178Y [9]) [%]	Activity (L5178Y [10]) [%]	Activity (L5178Y [11]) [%]	Activity (L5178Y [12]) [%]	Activity (L5178Y [13]) [%]	Activity (L5178Y [14]) [%]	also measured
CC(=O)C[Se]C(=O)c1ccc(Cl)cc1	343.79	308.91	84.64	94.2	1.7	0.78	1.03	3.86	85.8	7.66	30.8	52.7	0.874	fold change (FC) [2]: 1.6
CSc1ccc2c(c1)N(CCC1CCCCN1C)c1ccccc1S2 (stereo not drawn) [THIORIDAZINE]	–	–	–	–	–	12.7	7.43	–	–	–	–	–	–	–
c1ccc2c(c1)Nc1c(ccc3ccccc13)S2	–	–	–	–	–	–	–	–	–	–	–	–	–	Activity (L5178Y [15]): 47.9%; Activity (L5178Y [16]): 45.7%; Activity (L5178Y [17]): 0.12%; Activity (L5178Y [18]): 51.2%; Activity (L5178Y [19]): 5.58%; Activity (L5178Y [20]): 0.279%
NC(=O)C[Se]C(=O)c1ccccc1	3.04	3.72	1.05	1.02	–	> 100	36.4	3.01	2.91	0.33	2.46	2.24	0.081	–
COc1cc(OC)cc(C(=O)[Se]CC(=O)C(C)(C)C)c1	45.84	169.16	46.35	12.56	1.7	1.31	0.97	16.6	30.5	0.51	15.7	66.6	0.167	Ratio (L5178Y [21]): 2
COC(=O)C[Se]C(=O)c1ccc(Cl)cc1	30.28	23.54	8.53	6.45	–	> 100	87.8	2.69	1.47	0.03	5.09	2.52	0.497	–
CC(C)(C)C(=O)C[Se]C(=O)c1ccc(Cl)cc1	33.87	177.63	48.67	9.28	1.7	0.94	0.43	15.9	21.9	1.21	36.1	56.1	0.255	Ratio (L5178Y [21]): 2
C[Se]C(=O)c1ccc(C(=O)[Se]C)cc1	18.64	14.49	3.09	3.97	–	> 100	> 100	3.01	3.25	0.37	3.61	2.01	0.11	–
C[Se]C(=O)c1ccc(C(=O)[Se]C)s1	3.61	3.19	1.07	0.99	–	> 100	> 100	5.07	2.34	0.3	6.64	6.93	0.352	–
O=C1[Se]C(=O)c2ccccc21	157.4	356.2	97.61	43.14	1.7	3.97	4.65	32.2	45	0.47	31.5	53.9	0.767	fold change (FC) [2]: 1.6
C[Se]C(=O)c1cccc(C(=O)[Se]C)c1	2.78	3.39	0.98	0.93	–	> 100	> 100	4.35	2.8	0.45	4.47	3.79	0.076	–
C[Se]C(=O)c1cccc(C(=O)[Se]C)n1	3.98	5.44	1.49	1.13	–	19.5	16.9	5.38	3.28	0.24	5.97	7.18	0.202	–
O=C(C[Se]C(=O)c1ccccc1)Oc1ccccc1	3.05	2.37	5.68	0.65	–	> 100	> 100	3.9	2.26	0.16	3	2.11	0.24	–
